# Counter-ions that a name gives are not always drawn.
# Columns and labels:
# Assay type in all cases: cell-based, mouse
# [1] = tested on: Hedgehog Signaling Pathway; assay: Gli-Luc reporter gene cell assay in C3H10T1/2/Gli-Luc cells stimulated with Shh; details: 30 nM Shh, luciferase activity (RLU), read-out: IC50 values of compounds that inhibit Hh pathway
# Procedure, shortened: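 C3H10T1/2 cells stably carrying Gli-responsive luciferase were seeded overnight, then treated 24 h at 37 °C with compound (7-point dilution series, DMSO control) plus Shh (30 nM in added medium). Lysate luciferase RLU fitted against log concentration to derive IC50.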
# [2] = tested on: Hedgehog Signaling Pathway; assay: SHH-induced differentiation of C3H10T1/2 cells into osteoblastic cells, intracellular alkaline phosphatase activity; details: 10 nM SHH-N, 5 days, alkaline phosphatase activity (OD405), read-out: IC50 values of compounds that inhibit Hh pathway
# Procedure, shortened: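 Mouse C3H10T1/2 cells were induced with 10 nM SHH-N alongside test compound (10 μM–10 nM) for 5 days at 37 °C. Cells were lysed in 0.2% Triton, and alkaline phosphatase activity was read at OD405 over 30 min at 37 °C with the background reading subtracted. IC50 came from a nonlinear fit against log concentration.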
# [3] = tested on: Hedgehog Signaling Pathway; assay: SAG-induced differentiation of C3H10T1/2 cells into osteoblastic cells, intracellular alkaline phosphatase activity; details: 1 μM SAG, 5 days, alkaline phosphatase activity (OD405), read-out: IC50 values of compounds that inhibit Hh pathway
# Procedure, shortened: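 Mouse C3H10T1/2 cells were induced with SAG and exposed to compound (10 μM to 1 nM) for 5 days at 37 °C. Cells were lysed in 0.2% Triton, and alkaline phosphatase activity was read as OD405 over 30 min at 37 °C in pH 9.8 substrate buffer. IC50 came from a non-linear fit of background-subtracted OD405 against log concentration.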
# [4] = Mus musculus, C3H 10T1/2, 120 h
structure (smiles),measurement,setting,value
"C[C@@H]1CN(c2ccc(C(=O)Nc3ccc(Cl)c(-c4nc5ccccc5[nH]4)c3)cc2Cl)C[C@H](C)N1C [Example 133, N-(3-(1H-benzo[d]imidazol-2-yl)-4-chlorophenyl)-3-chloro-4-((3S,5R)-3,4,5-trimethylpiperazin-1-yl)benzamide Dihydrochloride]",IC50,"[1]; 24 hours, Dihydrochloride",1.6 nM
same,IC50,[2]; Dihydrochloride,6.3 nM
same,IC50,[3]; Dihydrochloride,54 nM
"Cc1csc(-c2cnc(-c3cc(NC(=O)c4ccc(N5C[C@@H](C)N(C)[C@@H](C)C5)cc4Cl)ccc3Cl)[nH]2)c1 [Example 136, N-(3-(5-(4-methylthiophen-2-yl)-1H-imidazol-2-yl)-4-chlorophenyl)-2-chloro-4-((3S,5R)-3,4,5-trimethylpiperazin-1-yl)benzamide]",IC50,"[1]; Mus musculus, C3H 10T1/2, 24 h",0.97 nM
same,IC50,[2]; [4],4 nM
same,IC50,[3]; [4],9.2 nM
"Cc1cc(N2C[C@@H](C)N(C)[C@@H](C)C2)ccc1C(=O)Nc1ccc(Cl)c(-c2ncc(-c3ccco3)[nH]2)c1 [Example 145, N-(3-(5-(furan-2-yl)-1H-imidazol-2-yl)-4-chlorophenyl)-2-methyl-4-((3S,5R)-3,4,5-trimethylpiperazin-1-yl)benzamide]",IC50,"[1]; Mus musculus, C3H 10T1/2, 24 h",0.38 nM
same,IC50,[2]; [4],0.93 nM
same,IC50,[3]; [4],3.3 nM
"Cc1cc(N2C[C@@H](C)N(C)[C@@H](C)C2)ccc1C(=O)Nc1ccc(Cl)c(-c2ncc(-c3ccsc3)[nH]2)c1 [Example 139, N-(3-(5-(thiophen-3-yl)-1H-imidazol-2-yl)-4-chlorophenyl)-2-methyl-4-((3S,5R)-3,4,5-trimethylpiperazin-1-yl)benzamide]",IC50,"[1]; Mus musculus, C3H 10T1/2, 24 h",1.1 nM
same,IC50,[2]; [4],1.8 nM
same,IC50,[3]; [4],44 nM
"C[C@@H]1CN(c2ccc(C(=O)Nc3ccc(Cl)c(-c4ncc(-c5cccs5)[nH]4)c3)c(Cl)c2)C[C@H](C)N1C [Example 82, N-(3-(5-(thiophen-2-yl)-1H-imidazol-2-yl)-4-chlorophenyl)-2-chloro-4-((3S,5R)-3,4,5-trimethylpiperazin-1-yl)benzamide]",IC50,"[1]; Mus musculus, C3H 10T1/2, 24 h",0.16 nM
same,IC50,[2]; [4],0.21 nM
same,IC50,[3]; [4],12 nM
"Cc1cc(N2C[C@@H](C)N(C)[C@@H](C)C2)ccc1C(=O)Nc1ccc(Cl)c(-c2nc3ccccc3[nH]2)c1 [Example 93, N-(3-(1H-benzo[d]imidazol-2-yl)-4-chlorophenyl)-2-methyl-4-((3S,5R)-3,4,5-trimethylpiperazin-1-yl)benzamide]",IC50,"[1]; Mus musculus, C3H 10T1/2, 24 h",0.5 nM
same,IC50,[2]; [4],0.69 nM
same,IC50,[3]; [4],32 nM
"COc1ncc(-c2ccc(C(=O)Nc3ccc(Cl)c(-c4nc5ccccc5[nH]4)c3)c(C)c2)cn1 [Example 39, N-(3-(1H-benzo[d]imidazol-2-yl)-4-chlorophenyl)-2-methyl-4-(2-methoxypyrimidin-5-yl)benzamide]",IC50,"[1]; Mus musculus, C3H 10T1/2, 24 h",8.2 nM
same,IC50,[2]; [4],15 nM
same,IC50,[3]; [4],40 nM
"C[C@@H]1CN(c2ccc(C(=O)Nc3ccc(Cl)c(-c4ncc(-c5ccco5)[nH]4)c3)c(C(F)(F)F)c2)C[C@H](C)N1C [Example 146, N-(3-(5-(furan-2-yl)-1H-imidazol-2-yl)-4-chlorophenyl)-2-(trifluoro-methyl)-4-((3S,5R)-3,4,5-trimethylpiperazin-1-yl)benzamide]",IC50,"[1]; Mus musculus, C3H 10T1/2, 24 h",0.39 nM
same,IC50,[2]; [4],0.49 nM
same,IC50,[3]; [4],25 nM
"Cc1cc(N2C[C@@H](C)N(C)[C@@H](C)C2)ccc1C(=O)Nc1ccc(Cl)c(-c2nc3ccccc3o2)c1 [Example 206, N-(3-(benzo[d]oxazol-2-yl)-4-chlorophenyl)-2-methyl-4-((3S,5R)-3,4,5-trimethylpiperazin-1-yl)benzamide]",IC50,"[1]; Mus musculus, C3H 10T1/2, 24 h",27 nM
same,IC50,[2]; [4],46 nM
same,IC50,[3]; [4],244 nM
"Cc1cc(N2C[C@@H](C)O[C@@H](C)C2)ccc1C(=O)Nc1ccc(Cl)c(-c2nc3ccccc3[nH]2)c1 [Example 32, N-(3-(1H-benzo[d]imidazol-2-yl)-4-chlorophenyl)-2-methyl-4-((2S,6R)-2,6-dimethylmorpholino)benzamide]",IC50,"[1]; Mus musculus, C3H 10T1/2, 24 h",7.2 nM
same,IC50,[2]; [4],7.9 nM
same,IC50,[3]; [4],53 nM
"C[C@@H]1CN(c2ccc(C(=O)Nc3cnc(Cl)c(-c4nc5ccccc5[nH]4)c3)c(Cl)c2)C[C@H](C)N1C [Example 127, N-(5-(1H-benzo[d]imidazol-2-yl)-6-chloropyridin-3-yl)-2-chloro-4-((3S,5R)-3,4,5-trimethylpiperazin-1-yl)benzamide]",IC50,"[1]; Mus musculus, C3H 10T1/2, 24 h",1.1 nM
same,IC50,[2]; [4],1.1 nM
same,IC50,[3]; [4],34 nM
"Cc1c(C(=O)Nc2ccc(Cl)c(-c3ncc(C4CC4)[nH]3)c2)ccc(N2C[C@@H](C)N(C)[C@@H](C)C2)c1F [Example 179, N-(3-(5-cyclopropyl-1H-imidazol-2-yl)-4-chlorophenyl)-2-methyl-3-fluoro-4-((3S,5R)-3,4,5-trimethylpiperazin-1-yl)benzamide]",IC50,"[1]; Mus musculus, C3H 10T1/2, 24 h",0.43 nM
same,IC50,[2]; [4],0.39 nM
same,IC50,[3]; [4],21 nM
"Cc1ncc(NC(=O)c2ccc(N3C[C@@H](C)N(C)[C@@H](C)C3)nc2)cc1-c1nc2ccccc2[nH]1 [Example 90, N-(5-(1H-benzo[d]imidazol-2-yl)-6-methylpyridin-3-yl)-6-((3S,5R)-3,4,5-trimethylpiperazin-1-yl)nicotinamide]",IC50,"[1]; Mus musculus, C3H 10T1/2, 24 h",25 nM
same,IC50,[2]; [4],35 nM
same,IC50,[3]; [4],461 nM
"Cc1cc(-c2ccc(C(F)(F)F)cc2)ccc1C(=O)Nc1ccc(Cl)c(-c2nc3ccccc3[nH]2)c1 [Example 21, N-(3-(1H-benzo[d]imidazol-2-yl)-4-chlorophenyl)-3-methyl-4′-(trifluoromethyl)biphenyl-4-carboxamide]",IC50,"[1]; Mus musculus, C3H 10T1/2, 24 h",5.8 nM
same,IC50,[2]; [4],2.3 nM
same,IC50,[3]; [4],30 nM
"Cc1cc(N2C[C@@H](C)N(C)[C@@H](C)C2)ncc1C(=O)Nc1ccc(Cl)c(-c2nc3ccccc3[nH]2)c1 [Example 107, N-(3-(1H-benzo[d]imidazol-2-yl)-4-chlorophenyl)-4-methyl-6-((3S,5R)-3,4,5-trimethylpiperazin-1-yl)nicotinamide]",IC50,"[1]; Mus musculus, C3H 10T1/2, 24 h",0.75 nM
same,IC50,[2]; [4],2.3 nM
same,IC50,[3]; [4],47 nM
"CCN1[C@H](C)CN(c2ccc(C(=O)Nc3ccc(Cl)c(-c4nc5ccccc5[nH]4)c3)cn2)C[C@@H]1C [Example 105, N-(3-(1H-benzo[d]imidazol-2-yl)-4-chlorophenyl)-6-((3S,5R)-4-ethyl-3,5-dimethylpiperazin-1-yl)nicotinamide]",IC50,"[1]; Mus musculus, C3H 10T1/2, 24 h",1.1 nM
same,IC50,[2]; [4],2.2 nM
same,IC50,[3]; [4],58 nM
"Cc1cc(-c2ccc(C(F)(F)F)cc2)ccc1C(=O)Nc1ccc(Cl)c(-c2ncc(-c3ccc(F)cc3)[nH]2)c1 [Example 78, N-(3-(5-(4-fluorophenyl)-1H-imidazol-2-yl)-4-chlorophenyl)-3-methyl-4′-(trifluoromethyl)biphenyl-4-carboxamide]",IC50,"[1]; Mus musculus, C3H 10T1/2, 24 h",15 nM
same,IC50,[2]; [4],4.8 nM
same,IC50,[3]; [4],166 nM
"C[C@@H]1CN(c2ccc(C(=O)Nc3cnc(Cl)c(-c4nc5ccccc5[nH]4)c3)c(Cl)c2)C[C@H](C)O1 [Example 128, N-(5-(1H-benzo[d]imidazol-2-yl)-6-chloropyridin-3-yl)-2-chloro-4-((2S,6R)-2,6-dimethylmorpholino)benzamide]",IC50,"[1]; Mus musculus, C3H 10T1/2, 24 h",5.2 nM
same,IC50,[2]; [4],5.3 nM
same,IC50,[3]; [4],60 nM
"C[C@@H]1CN(c2cc(Cl)c(C(=O)Nc3ccc(Cl)c(-c4nc5ccccc5[nH]4)c3)cc2F)C[C@H](C)N1C [Example 123, N-(3-(1H-benzo[d]imidazol-2-yl)-4-chlorophenyl)-2-chloro-5-fluoro-4-((3S,5R)-3,4,5-trimethylpiperazin-1-yl)benzamide]",IC50,"[1]; Mus musculus, C3H 10T1/2, 24 h",0.39 nM
same,IC50,[2]; [4],0.97 nM
same,IC50,[3]; [4],53 nM
"Cc1cc(N2C[C@@H](C)N(C(C)C)[C@@H](C)C2)ccc1C(=O)Nc1ccc(Cl)c(-c2nc3ccccc3[nH]2)c1 [Example 101, N-(3-(1H-benzo[d]imidazol-2-yl)-4-chlorophenyl)-2-methyl-4-((3S,5R)-4-isopropyl-3,5-dimethylpiperazin-1-yl)benzamide]",IC50,"[1]; Mus musculus, C3H 10T1/2, 24 h",0.67 nM
same,IC50,[2]; [4],0.64 nM
same,IC50,[3]; [4],46 nM
"C[C@@H]1CN(c2ccc(C(=O)Nc3ccc(Cl)c(-c4nc5ccccc5[nH]4)c3)c(Cl)n2)C[C@H](C)N1C [Example 117, N-(3-(1H-benzo[d]imidazol-2-yl)-4-chlorophenyl)-2-chloro-6-((3S,5R)-3,4,5-trimethylpiperazin-1-yl)nicotinamide]",IC50,"[1]; Mus musculus, C3H 10T1/2, 24 h",1.2 nM
same,IC50,[2]; [4],4.6 nM
same,IC50,[3]; [4],27 nM
"Cc1cc(-c2ccc(C#N)cc2)ccc1C(=O)Nc1ccc(Cl)c(-c2nc3ccccc3[nH]2)c1 [Example 6, N-(3-(1H-benzo[d]imidazol-2-yl)-4-chlorophenyl)-3-methyl-4′-cyanobiphenyl-4-carboxamide]",IC50,"[1]; Mus musculus, C3H 10T1/2, 24 h",3.3 nM
same,IC50,[2]; [4],2.6 nM
same,IC50,[3]; [4],19 nM
"Cc1cc(-c2ccc(C#N)cc2)ccc1C(=O)Nc1cnc(Cl)c(-c2nc3ccccc3[nH]2)c1 [Example 70, N-(5-(1H-benzo[d]imidazol-2-yl)-6-chloropyridin-3-yl)-3-methyl-4′-cyanobiphenyl-4-carboxamide]",IC50,"[1]; Mus musculus, C3H 10T1/2, 24 h",1.7 nM
same,IC50,[2]; [4],2.8 nM
same,IC50,[3]; [4],34 nM
